Data published in ChEMBL document CHEMBL4304804, “Synthesis and biological evaluation of calycanthaceous alkaloid analogs” (Bioorg Med Chem, 2019).
In brackets after ≈: the same amount, converted by molar mass. Activity calls are given as the source filed them. No cut-off for these calls is given here.

Key:
Aspergillus flavus = assay: Antifungal activity against Aspergillus flavus assessed as reduction in fungal cell growth incubated for 48 hrs by serial dilution method; type: functional
Aspergillus niger = assay: Antifungal activity against Aspergillus niger assessed as reduction in fungal cell growth incubated for 48 hrs by serial dilution method; type: functional
Cytospora = assay: Antifungal activity against Cytospora juglandis assessed as reduction in fungal cell growth incubated for 48 hrs by serial dilution method; type: functional
Candida tropicalis = assay: Antifungal activity against Candida tropicalis assessed as reduction in fungal cell growth incubated for 48 hrs by serial dilution method; type: functional
Curvularia lunata = assay: Antifungal activity against Curvularia lunata assessed as reduction in fungal cell growth incubated for 48 hrs by serial dilution method; type: functional
Candida = assay: Antifungal activity against […] assessed as reduction in fungal cell growth incubated for 48 hrs by serial dilution method; type: functional
Pseudomonas aeruginosa = assay: Antibacterial activity against Pseudomonas aeruginosa assessed as reduction in bacterial cell growth incubated for 24 hrs by filter paper assay; type: functional
[1] = test system: Colletotrichum orbiculare; assay: Antifungal activity against Colletotrichum orbiculare assessed as reduction in fungal cell growth incubated for 48 hrs by serial dilution method; type: functional
Penicillium citrinum = assay: Antifungal activity against Penicillium citrinum assessed as reduction in fungal cell growth incubated for 48 hrs by serial dilution method; type: functional
Acetylcholinesterase = Acetylcholinesterase (Electrophorus electricus, UniProt O42275); assay: Inhibition of electric eel AChE by Ellman's colorimetry
[2] = test system: Fusarium oxysporum f. sp. vasinfectum; assay: Antifungal activity against Fusarium oxysporum sp. vasinfectum assessed as reduction in fungal cell growth incubated for 48 hrs by serial dilution method; type: functional
Fusarium oxysporum = assay: Antifungal activity against Fusarium oxysporum assessed as reduction in fungal cell growth incubated for 48 hrs by serial dilution method; type: functional
Escherichia coli = assay: Antibacterial activity against Escherichia coli assessed as reduction in bacterial cell growth incubated for 24 hrs by filter paper assay; type: functional
Cryptococcus neoformans = assay: Antifungal activity against Cryptococcus neoformans assessed as reduction in fungal cell growth incubated for 48 hrs by serial dilution method; type: functional
Bacillus cereus = assay: Antibacterial activity against Bacillus cereus assessed as reduction in bacterial cell growth incubated for 24 hrs by filter paper assay; type: functional
Staphylococcus aureus = assay: Antibacterial activity against Staphylococcus aureus assessed as reduction in bacterial cell growth incubated for 24 hrs by filter paper assay; type: functional
Verticillium dahliae = assay: Antifungal activity against Verticillium dahliae assessed as reduction in fungal cell growth incubated for 48 hrs by serial dilution method; type: functional
Ralstonia solanacearum = assay: Antibacterial activity against Ralstonia solanacearum assessed as reduction in bacterial cell growth incubated for 24 hrs by filter paper assay; type: functional

Acetylcholinesterase, sequence (O42275 whole entry): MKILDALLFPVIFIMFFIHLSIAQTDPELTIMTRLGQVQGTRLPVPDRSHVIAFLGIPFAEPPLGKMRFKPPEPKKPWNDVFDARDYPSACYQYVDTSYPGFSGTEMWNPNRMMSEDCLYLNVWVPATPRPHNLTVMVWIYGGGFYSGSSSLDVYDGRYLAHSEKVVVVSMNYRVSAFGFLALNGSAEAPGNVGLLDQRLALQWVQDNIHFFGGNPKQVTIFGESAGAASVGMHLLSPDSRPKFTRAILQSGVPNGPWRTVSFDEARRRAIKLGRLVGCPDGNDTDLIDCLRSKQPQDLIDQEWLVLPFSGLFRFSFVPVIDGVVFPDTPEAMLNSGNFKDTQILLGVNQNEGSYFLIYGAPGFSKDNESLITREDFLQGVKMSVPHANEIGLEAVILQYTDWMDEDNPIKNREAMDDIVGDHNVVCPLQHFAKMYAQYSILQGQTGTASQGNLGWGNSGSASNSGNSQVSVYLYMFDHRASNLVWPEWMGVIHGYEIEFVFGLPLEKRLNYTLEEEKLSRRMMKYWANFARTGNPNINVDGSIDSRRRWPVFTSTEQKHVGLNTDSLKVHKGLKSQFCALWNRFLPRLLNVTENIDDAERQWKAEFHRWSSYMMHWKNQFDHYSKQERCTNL

Row | Compound | MIC (Aspergillus flavus) | MIC (Aspergillus niger) | MIC (Cytospora) | MIC (Candida tropicalis) | MIC (Curvularia lunata) | MIC (Candida) | MIC (Pseudomonas aeruginosa) | MIC [1] | MIC (Penicillium citrinum) | IC50 (Acetylcholinesterase) | MIC [2] | MIC (Fusarium oxysporum) | MIC (Escherichia coli) | MIC (Cryptococcus neoformans) | MIC (Bacillus cereus) | MIC (Staphylococcus aureus) | MIC (Verticillium dahliae) | MIC (Ralstonia solanacearum)
1 | CCCCCC(=O)N1CCC2(Cc3cccc(C)c3)c3ccccc3N(Cc3cccc(C)c3)C12 (centres undefined) | 250 µg/mL (≈ 536 µM) | 250 µg/mL (≈ 536 µM) | 125 µg/mL (≈ 268 µM) | 250 µg/mL (≈ 536 µM) | inactive | 250 µg/mL (≈ 536 µM) | 125 µg/mL (≈ 268 µM) | 250 µg/mL (≈ 536 µM) | 250 µg/mL (≈ 536 µM) | 142 µM | inactive | 125 µg/mL (≈ 268 µM) | inactive | inactive | 250 µg/mL (≈ 536 µM) | inactive | 15.6 µg/mL (≈ 33.5 µM) | 250 µg/mL (≈ 536 µM)
2 | CCCCCCC(=O)N1CCC2(Cc3ccccc3C)c3ccccc3N(Cc3ccccc3C)C12 (centres undefined) | 250 µg/mL (≈ 520 µM) | 250 µg/mL (≈ 520 µM) | 62.5 µg/mL (≈ 130 µM) | 250 µg/mL (≈ 520 µM) | 125 µg/mL (≈ 260 µM) | 250 µg/mL (≈ 520 µM) | 250 µg/mL (≈ 520 µM) | 250 µg/mL (≈ 520 µM) | 125 µg/mL (≈ 260 µM) | 90.8 µM | 250 µg/mL (≈ 520 µM) | 125 µg/mL (≈ 260 µM) | 250 µg/mL (≈ 520 µM) | inactive | inactive | inactive | 62.5 µg/mL (≈ 130 µM) | 125 µg/mL (≈ 260 µM)
3 | Cc1ccccc1CN1c2ccccc2C2(Cc3ccccc3C)CCN(C(=O)C(F)(F)F)C12 (centres undefined) | 250 µg/mL (≈ 538 µM) | 250 µg/mL (≈ 538 µM) | 250 µg/mL (≈ 538 µM) | 125 µg/mL (≈ 269 µM) | 250 µg/mL (≈ 538 µM) | 250 µg/mL (≈ 538 µM) | inactive | 250 µg/mL (≈ 538 µM) | inactive | 7.08 µM | inactive | 250 µg/mL (≈ 538 µM) | inactive | inactive | inactive | inactive | 125 µg/mL (≈ 269 µM) | inactive
4 | Cc1ccc(S(=O)(=O)N2CCC3(Cc4cccc(C)c4)c4ccccc4N(Cc4cccc(C)c4)C23)cc1 (centres undefined) | 250 µg/mL (≈ 478 µM) | 250 µg/mL (≈ 478 µM) | 250 µg/mL (≈ 478 µM) | inactive | inactive | 250 µg/mL (≈ 478 µM) | inactive | 250 µg/mL (≈ 478 µM) | inactive | 12.8 µM | 125 µg/mL (≈ 239 µM) | 250 µg/mL (≈ 478 µM) | inactive | inactive | 125 µg/mL (≈ 239 µM) | inactive | 62.5 µg/mL (≈ 120 µM) | inactive
5 | CCC(=O)N1CCC2(Cc3cccc(C)c3)c3ccccc3N(Cc3cccc(C)c3)C12 (centres undefined) | 250 µg/mL (≈ 589 µM) | 125 µg/mL (≈ 294 µM) | 62.5 µg/mL (≈ 147 µM) | 250 µg/mL (≈ 589 µM) | 250 µg/mL (≈ 589 µM) | 250 µg/mL (≈ 589 µM) | inactive | 250 µg/mL (≈ 589 µM) | inactive | 0.919 µM | inactive | 125 µg/mL (≈ 294 µM) | 250 µg/mL (≈ 589 µM) | inactive | 31.2 µg/mL (≈ 73.6 µM) | 62.5 µg/mL (≈ 147 µM) | 250 µg/mL (≈ 589 µM) | inactive
6 | CN1c2ccccc2C2(O)CCCN(C(=O)c3ccccc3F)C12 (centres undefined) | inactive | inactive | inactive | inactive | inactive | inactive | 250 µg/mL (≈ 766 µM) | inactive | inactive | 0.98 µM | inactive | inactive | 250 µg/mL (≈ 766 µM) | inactive | inactive | inactive | 125 µg/mL (≈ 383 µM) | 125 µg/mL (≈ 383 µM)
7 | CCCCCC(=O)N1CCC2(Cc3ccccc3C)c3ccccc3N(Cc3ccccc3C)C12 (centres undefined) | 250 µg/mL (≈ 536 µM) | 250 µg/mL (≈ 536 µM) | 125 µg/mL (≈ 268 µM) | inactive | 125 µg/mL (≈ 268 µM) | 125 µg/mL (≈ 268 µM) | 125 µg/mL (≈ 268 µM) | 250 µg/mL (≈ 536 µM) | 250 µg/mL (≈ 536 µM) | 217 µM | inactive | 125 µg/mL (≈ 268 µM) | inactive | inactive | inactive | inactive | 62.5 µg/mL (≈ 134 µM) | 250 µg/mL (≈ 536 µM)
8 | Cc1cccc(CN2c3ccccc3C3(Cc4cccc(C)c4)CCN(C(=O)CCc4ccccc4)C23)c1 (centres undefined) | 250 µg/mL (≈ 499 µM) | inactive | 250 µg/mL (≈ 499 µM) | inactive | inactive | inactive | inactive | inactive | inactive | 0.00399 µM | 62.5 µg/mL (≈ 125 µM) | 250 µg/mL (≈ 499 µM) | inactive | inactive | inactive | inactive | inactive | inactive
